Reference: PubChem BioAssay AID1963440 (Molecular Pharmacology Branch, DTP, NCI, 2024)
One block for each compound: values may come before it.

Tested on: NCI-H1417 complex spheroids, growth % test/control
Experiment: Anticancer human tumor NCI-H1417 cell line growth inhibition [Asc];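 further: spheroids exposed to compounds for 7 days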;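 on viability, T/C: 100% = DMSO vehicle control wells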
Details: for IC50: curve of first compound; for viability, T/C: stronger effect = lower value
Procedure, shortened: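 Tumor cells were grown as multicellular spheroids with stromal HUVEC and mesenchymal stem cells and treated singly or in combination. Concentrations fell in half-log steps from the clinical Cmax, or from 10 microM where none was known.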

IC50 (second compound 0.1 µM): 584 nM | IC50 (second compound 0.316 µM): < 9.49 nM | IC50 (second compound 1 µM): < 9.49 nM | IC50 (second compound 3.16 µM): < 9.49 nM | IC50 (second compound 10 µM): < 9.49 nM
SMILES: CCN1C(C(=O)NC23CCC(C(=O)O)(CC2)CC3)C(c2cccc(Cl)c2F)C2(C(=O)Nc3cc(Cl)ccc32)C12CCCCC2 (stereo not given) + Cc1c(S(C)(=O)=O)c(-c2cc(F)cc(N3CCN(c4ccc(NS(=O)(=O)c5ccc(NC(CCN6CCC(C(=O)OCCCP(=O)(O)O)CC6)CSc6ccccc6)c(S(=O)(=O)C(F)(F)F)c5)cc4)CC3)c2)c(-c2ccc(Cl)cc2)n1C(C)C
viability, T/C (second compound 0.1 µM, first compound 0.00949 µM): 78.9% | viability, T/C (second compound 0.1 µM, first compound 0.03 µM): 81.2% | viability, T/C (second compound 0.1 µM, first compound 0.0949 µM): 67.5% | viability, T/C (second compound 0.1 µM, first compound 0.3 µM): 58.7% | viability, T/C (second compound 0.1 µM, first compound 0.949 µM): 44.9% | viability, T/C (second compound 0.1 µM, first compound 3 µM): 16.4% | viability, T/C (second compound 0.316 µM, first compound 0.00949 µM): 35.7% | viability, T/C (second compound 0.316 µM, first compound 0.03 µM): 33.3% | viability, T/C (second compound 0.316 µM, first compound 0.0949 µM): 22.1% | viability, T/C (second compound 0.316 µM, first compound 0.3 µM): 16.4% | viability, T/C (second compound 0.316 µM, first compound 0.949 µM): 11.8% | viability, T/C (second compound 0.316 µM, first compound 3 µM): 1.6% | viability, T/C (second compound 1 µM, first compound 0.00949 µM): 11.4% | viability, T/C (second compound 1 µM, first compound 0.03 µM): 6.74% | viability, T/C (second compound 1 µM, first compound 0.0949 µM): 4.76% | viability, T/C (second compound 1 µM, first compound 0.3 µM): 2.15% | viability, T/C (second compound 1 µM, first compound 0.949 µM): 1.25% | viability, T/C (second compound 1 µM, first compound 3 µM): 0.65% | viability, T/C (second compound 3.16 µM, first compound 0.00949 µM): 2.36% | viability, T/C (second compound 3.16 µM, first compound 0.03 µM): 2.41% | viability, T/C (second compound 3.16 µM, first compound 0.0949 µM): 1.59% | viability, T/C (second compound 3.16 µM, first compound 0.3 µM): 1.03% | viability, T/C (second compound 3.16 µM, first compound 0.949 µM): 0.63% | viability, T/C (second compound 3.16 µM, first compound 3 µM): 0.39% | viability, T/C (second compound 10 µM, first compound 0.00949 µM): 1.88% | viability, T/C (second compound 10 µM, first compound 0.03 µM): 2.25% | viability, T/C (second compound 10 µM, first compound 0.0949 µM): 2.08% | viability, T/C (second compound 10 µM, first compound 0.3 µM): 1.02% | viability, T/C (second compound 10 µM, first compound 0.949 µM): 0.65% | viability, T/C (second compound 10 µM, first compound 3 µM): 0.29%

IC50 (second compound 0.1 µM): > 1000 nM | IC50 (second compound 0.316 µM): < 3.16 nM | IC50 (second compound 1 µM): < 3.16 nM | IC50 (second compound 3.16 µM): < 3.16 nM | IC50 (second compound 10 µM): < 3.16 nM
SMILES: CNC(C)C(=O)NC1CN(S(=O)(=O)c2cccc(S(=O)(=O)N3CCC4CCC(C(=O)NC(c5ccccc5)c5ccccc5)N4C(=O)C(NC(=O)C(C)NC)C3)c2)CCC2CCC(C(=O)NC(c3ccccc3)c3ccccc3)N2C1=O (stereo not given) + Cc1c(S(C)(=O)=O)c(-c2cc(F)cc(N3CCN(c4ccc(NS(=O)(=O)c5ccc(NC(CCN6CCC(C(=O)OCCCP(=O)(O)O)CC6)CSc6ccccc6)c(S(=O)(=O)C(F)(F)F)c5)cc4)CC3)c2)c(-c2ccc(Cl)cc2)n1C(C)C
viability, T/C (second compound 0.1 µM, first compound 0.00316 µM): 94.1% | viability, T/C (second compound 0.1 µM, first compound 0.01 µM): 95.3% | viability, T/C (second compound 0.1 µM, first compound 0.0316 µM): 80.2% | viability, T/C (second compound 0.1 µM, first compound 0.1 µM): 74.7% | viability, T/C (second compound 0.1 µM, first compound 0.316 µM): 84.6% | viability, T/C (second compound 0.1 µM, first compound 1 µM): 81.1% | viability, T/C (second compound 0.316 µM, first compound 0.00316 µM): 42.4% | viability, T/C (second compound 0.316 µM, first compound 0.01 µM): 47.4% | viability, T/C (second compound 0.316 µM, first compound 0.0316 µM): 47.6% | viability, T/C (second compound 0.316 µM, first compound 0.1 µM): 36.8% | viability, T/C (second compound 0.316 µM, first compound 0.316 µM): 38% | viability, T/C (second compound 0.316 µM, first compound 1 µM): 39.3% | viability, T/C (second compound 1 µM, first compound 0.00316 µM): 12.2% | viability, T/C (second compound 1 µM, first compound 0.01 µM): 10.3% | viability, T/C (second compound 1 µM, first compound 0.0316 µM): 9.05% | viability, T/C (second compound 1 µM, first compound 0.1 µM): 8.75% | viability, T/C (second compound 1 µM, first compound 0.316 µM): 4.64% | viability, T/C (second compound 1 µM, first compound 1 µM): 4.71% | viability, T/C (second compound 3.16 µM, first compound 0.00316 µM): 3.82% | viability, T/C (second compound 3.16 µM, first compound 0.01 µM): 2.79% | viability, T/C (second compound 3.16 µM, first compound 0.0316 µM): 2.43% | viability, T/C (second compound 3.16 µM, first compound 0.1 µM): 2.42% | viability, T/C (second compound 3.16 µM, first compound 0.316 µM): 2.07% | viability, T/C (second compound 3.16 µM, first compound 1 µM): 1.84% | viability, T/C (second compound 10 µM, first compound 0.00316 µM): 2.6% | viability, T/C (second compound 10 µM, first compound 0.01 µM): 1.96% | viability, T/C (second compound 10 µM, first compound 0.0316 µM): 3.22% | viability, T/C (second compound 10 µM, first compound 0.1 µM): 1.45% | viability, T/C (second compound 10 µM, first compound 0.316 µM): 1.71% | viability, T/C (second compound 10 µM, first compound 1 µM): 1.47%
